In paper PMC7784547 (Bioorganic Chemistry, 2021):

Legend:
[1] = test system: A/Puerto Rico/8/34 (H1N1) with the NA-H274Y mutation; type: cell-based, influenza A virus; settings: read-out: IC50 ± SD, 274
[2] = test system: influenza A/PR/8/34 (H1N1) virus; type: cell-based

C=Cc1c(C)c2cc3nc(c4c5[nH]c(cc6nc(cc1[nH]2)C(C)=C6CC)c(C)c5C(=O)C4)[C@@H](CCC(=O)O)[C@@H]3C [PPa, pyropheophorbide a, reference compound]
IC50 [1]: 1.05 ± 0.99 µM

protoporphyrin IX [PPIX]
IC50 [1]: 1.24 ± 0.53 µM | IC50 after passage of ten generations [2]: 2.18 ± 0.71 µg/mL
